According to patent US20150284342A1, “BIS(FLUOROALKYL)-1,4-BENZODIAZEPINONE COMPOUNDS” (BRISTOL-MYERS SQUIBB COMPANY, priority 2011, published 2015):

What was measured:
[1] = High Throughput (HT) Metabolic Stability Panel, mouse liver microsomes; conditions: 0.5 μM compound, mouse liver microsomes, 10 min incubation
Method: (§1) Each compound was tested in duplicate.

Notch 1 = assay: Notch-CBF1 Transactivation Assay (Notch 1); format: cell-based; conditions: read-out: Notch 1 (IC50), HeLa cells, luciferase, rounded to 2 digits
From the text: (§2) Table 12 denotes respective DNA quantity for the transfections.
(§3) Duplicates were used for each sample.

[2] = test system: MDA-MB-468 Human Breast Carcinoma; assay: Human tumor xenograft model in mice: MDA-MB-468 (combination with paclitaxel); format: in vivo
human tumor xenografts = assay: Human Tumor Xenograft Models in Mice (various tumors); format: in vivo; conditions: oral administration (PO)
[3] = test system: TALL1 Human T-cell acute lymphoblastic leukemia; assay: Human tumor xenograft model in mice: TALL1; format: in vivo; conditions: 24 mg/kg, oral, QD × 15, 10 Day-on-2 Day-off
[4] = High Throughput (HT) Metabolic Stability Panel, human liver microsomes; conditions: 0.5 μM compound, human liver microsomes, 10 min incubation
Method: as §1

[5] = test system: human breast carcinoma cell line MDA-MB-157; assay: Human tumor xenograft model in mice: MDA-MB-157; format: in vivo; conditions: 24 mg/kg, oral, QD × 15, 10 Day-on-2 Day-off
Notch 3 = assay: Notch-CBF1 Transactivation Assay (Notch 3); format: cell-based; conditions: read-out: Notch 3 (IC50), HeLa cells, luciferase, rounded to 2 digits
From the text: as §2, §3

[6] = test system: ER receptor positive human breast carcinoma xenograft MCF7; assay: Human tumor xenograft model in mice: MCF7 (combination with Tamoxifen); format: in vivo
[7] = Paclitaxel 12 mg/kg IV, Q7D x 6
[8] = Paclitaxel 12 mg/kg IV, Q7D x 6, target tumor size 500 mg
[9] = Tamoxifen 20 mg/kg IP, Q2D × 10

## NC(=O)[C@@H](CCC(F)(F)F)[C@@H](CCC(F)(F)F)C(=O)N[C@H]1N=C(c2ccccc2)c2ccccc2NC1=O [Example 2, (2R,3S)—N-((3S)-2-Oxo-5-phenyl-2,3-dihydro-1H-1,4-benzodiazepin-3-yl)-2,3-bis(3,3,3-trifluoropropyl)succinamide]
[1]
  0.5 μM MsLM (% Remaining): 86%
Notch 1
  IC50: 1.7 nM
[2]; single agent, 24 mg/kg, oral, QD × 15, 10 Day-on-2 Day-off
  Antitumor Activity MDA-MB-468 (% TGI): 87 % TGI
Human tumor xenografts
  antitumor activity: showed antitumor activity
[3]
  Antitumor Activity TALL1 (LCK): 2.4 LCK
[4]
  0.5 μM HLM (% Remaining): 88%
[5]
  Antitumor Activity MDA-MB-157 (% TGI): 85 % TGI
Notch 3
  IC50: 3.3 nM

## COCCNc1cccc2c1NC(=O)[C@@H](NC(=O)[C@H](CCC(F)(F)F)[C@H](CCC(F)(F)F)C(N)=O)N=C2c1ccccc1 [Example 21, (2R,3S)—N-((3S)-9-((2-Methoxyethyl)amino)-2-oxo-5-phenyl-2,3-dihydro-1H-1,4-benzodiazepin-3-yl)-2,3-bis(3,3,3-trifluoropropyl)succinamide]
[1]
  0.5 μM MsLM (% Remaining): 82%
Notch 1
  IC50: 1.5 nM
[4]
  0.5 μM HLM (% Remaining): 98%
Notch 3
  IC50: 4.2 nM

## CC(=O)O[C@H]1C(=O)[C@@]2(C)[C@H]([C@H](OC(=O)c3ccccc3)[C@]3(O)C[C@H](OC(=O)[C@H](O)[C@@H](NC(=O)c4ccccc4)c4ccccc4)C(C)=C1C3(C)C)[C@]1(OC(C)=O)CO[C@@H]1C[C@@H]2O [Paclitaxel, paclitaxel, reference compound]
[2]; [7]
  CR (%): 0%
  PR (%): 0%
[2]; [8]
  Tumor Growth Delay: 7.8 days
  Tumor Growth Delay (LCK): 0.5 LCK
[2]; paclitaxel weekly, 12 mg/kg/adm
  antitumor effect (LCK): 0.5 LCK

## CC/C(=C(\c1ccccc1)c1ccc(OCCN(C)C)cc1)c1ccccc1 [Tamoxifen, reference compound]
[6]; [9]
  CR (%): 0%
  PR (%): 0%
[6]; Tamoxifen 20 mg/kg IP, Q2D × 10, target tumor size 500 mg
  Tumor Growth Inhibition TGI: 78%
[6]; Tamoxifen at MTD dose of 20 mg/kg/adm, IP, Q2 DX12
  % TGI: 78%
[6]; single agent
  CR or PR: no CR or PR
